# Laboratory results published in patent US20060263802A1 (priority 2003, published 2006).
# How the values were obtained:
# Format in all cases: binding
# [1] = test system: human monoclonal antibody CRJB
# [2] = test system: human monoclonal antibody CR57
# [3] = test system: human monoclonal antibody CRJA
# [4] = test system: human monoclonal antibody CRJB; remark: listed apart in the source
# [5] = test system: human monoclonal antibody CR57; remark: listed apart in the source
# [6] = test system: human monoclonal antibody CRJA; remark: listed apart in the source
Sequence,Binding of CRJB to linear peptide (PEPSCAN-ELISA signal) [1],Binding of CR57 to linear peptide (PEPSCAN-ELISA signal) [2],Binding of CRJA to linear peptide (PEPSCAN-ELISA signal) [3],Binding of CRJB (10 μg/ml) to looped/cyclic peptide (PEPSCAN-ELISA signal) [4],Binding of CR57 (10 μg/ml) to looped/cyclic peptide (PEPSCAN-ELISA signal) [5],Binding of CRJA (10 μg/ml) to looped/cyclic peptide (PEPSCAN-ELISA signal) [6],Binding of human monoclonal antibody CRJB to linear peptide (PEPSCAN-ELISA signal) [1],Binding of human monoclonal antibody CR57 to linear peptide (PEPSCAN-ELISA signal) [2],Binding of human monoclonal antibody CRJA to linear peptide (PEPSCAN-ELISA signal) [3],Binding of CRJB to looped/cyclic peptide (PEPSCAN-ELISA signal) [4],Binding of CR57 to looped/cyclic peptide (PEPSCAN-ELISA signal) [5],Binding of CRJA to looped/cyclic peptide (PEPSCAN-ELISA signal) [6],Binding of CRJB (10 μg/ml) to looped/cyclic peptide (PEPSCAN-ELISA) [4],Binding of CR57 (10 μg/ml) to looped/cyclic peptide (PEPSCAN-ELISA) [5],Binding of CRJA (10 μg/ml) to looped/cyclic peptide (PEPSCAN-ELISA) [6]
NLSGFSYMELKVGYI,115,61,94,83,68,90,–,–,–,–,–,–,–,–,–
NLVVEDEGCTNLSGF,119,75,85,92,106,74,–,–,–,–,–,–,–,–,–
NNLVVEDEGCTNLSG,99,72,93,75,86,88,–,–,–,–,–,–,–,–,–
NPRLGMSCDIFTNSR,113,90,82,101,78,91,–,–,–,–,–,–,–,–,–
NPYPDYRWLRTVKTT,102,85,106,92,89,84,–,–,–,–,–,–,–,–,–
NQVSGVDLGLPNWGK,–,–,–,–,–,–,138,78,103,128,84,79,–,–,–
NSRGKRASKGSETCG,100,92,63,60,107,71,–,–,–,–,–,–,–,–,–
NVLIPEMQSSLLQQH,120,72,92,–,–,–,–,–,–,–,–,–,99,97,110
NWKMAGDPRYEESLH,101,58,69,78,94,93,–,–,–,–,–,–,–,–,–
NYTNFVGYVTTTFKR,114,49,97,88,58,85,–,–,–,–,–,–,–,–,–
PDACRAAYNWKMAGD,124,61,93,76,97,96,–,–,–,–,–,–,–,–,–
PDGNVLIPEMQSSLL,129,87,99,–,–,–,–,–,–,–,–,–,108,110,112
PDQLVNLHDFRSDEI,106,35,43,–,–,–,–,–,–,–,–,–,73,70,46
PDVHNQVSGVDLGLP,–,–,–,–,–,–,129,106,107,104,106,115,–,–,–
PDYRWLRTVKTTKES,85,76,83,72,79,90,–,–,–,–,–,–,–,–,–
PEMQSSLLQQHMELL,133,62,79,–,–,–,–,–,–,–,–,–,82,72,78
PENPRLGMSCDIFTN,111,83,94,98,116,83,–,–,–,–,–,–,–,–,–
PGFGKAYTIFNKTLM,113,78,118,–,–,–,–,–,–,–,–,–,79,110,94
PHVNGVFFNGIILGP,173,93,117,–,–,–,–,–,–,–,–,–,134,112,107
PIDIHHLSCPNNLVV,93,46,39,70,50,38,–,–,–,–,–,–,–,–,–
PIYTILDKLGPWSPI,89,36,143,77,58,78,–,–,–,–,–,–,–,–,–
PLADPSTVFKDGDEA,–,–,–,–,–,–,125,99,84,97,148,97,–,–,–
PLVHPLADPSTVFKD,112,93,90,–,–,–,–,–,–,–,–,–,90,101,104
PNNLVVEDEGCTNLS,107,78,86,60,100,96,–,–,–,–,–,–,–,–,–
PPDQLVNLHDFRSDE,120,107,118,–,–,–,–,–,–,–,–,–,83,101,97
PRLGMSCDIFTNSRG,112,72,108,89,87,96,–,–,–,–,–,–,–,–,–
PRYEESLHNPYPDYR,115,73,103,79,92,99,–,–,–,–,–,–,–,–,–
PSGKCSGVAVSSTYC,112,56,106,48,58,73,–,–,–,–,–,–,–,–,–
PSKGCLRVGGRCHPH,138,69,78,–,–,–,–,–,–,–,–,–,99,92,71
